# Assay results published in patent EP0674636B1, “QUINUCLIDINE DERIVATIVES AS SQUALENE SYNTHASE INHIBITORS” (ZENECA LIMITED, priority 1992, dated 1994).
# Legend:
# [1] = target: T1, Squalene synthase (Rattus norvegicus, UniProt Q02769); experiment: Inhibition of squalene synthase (formation of squalene from tritiated farnesyl pyrophosphate by rat liver microsomal protein); assay type: biochemical; settings: substrate 1-[3H]-farnesyl pyrophosphate 20µM
# T1 construct: from tissue; host or cells: rat liver microsomes
# T1 sequence (Q02769 1-416): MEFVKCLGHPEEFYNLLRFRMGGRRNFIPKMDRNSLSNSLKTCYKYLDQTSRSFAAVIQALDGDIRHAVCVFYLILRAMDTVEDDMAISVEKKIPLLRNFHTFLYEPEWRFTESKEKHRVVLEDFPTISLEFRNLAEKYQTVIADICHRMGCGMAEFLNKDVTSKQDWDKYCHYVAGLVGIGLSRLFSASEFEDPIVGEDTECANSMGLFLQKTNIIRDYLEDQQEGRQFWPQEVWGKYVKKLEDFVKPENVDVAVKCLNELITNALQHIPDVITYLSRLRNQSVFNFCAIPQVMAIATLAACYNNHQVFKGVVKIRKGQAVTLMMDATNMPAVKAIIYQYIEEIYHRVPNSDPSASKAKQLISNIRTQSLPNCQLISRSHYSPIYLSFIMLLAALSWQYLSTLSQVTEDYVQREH
# Procedure: (a) Inhibition of Squalene synthase
# In this test, the ability of a compound to prevent the formation of squalene from a radioactive substrate (tritiated farnesyl pyrophosphate) is assessed.
# The test compound is incubated at a concentration of 25 micromolar in 200µl of a buffered solution containing potassium phosphate (50mM), MgCl2 (4.95mM), KF (9.9mM), NADPH (0.9mM) and rat liver microsomal protein (20µg). Rat liver microsomes are prepared by the method described in published European Patent Application No. 324,421 and stored in liquid nitrogen prior to assay. Assay vials are kept at 37°C throughout the incubation.
# The reaction is started with the addition of the substrate (1-[^3H]-farnesyl pyrophosphate), final concentration 20µM, and stopped after 15 minutes reaction time with the addition of 50µl of 4% KOH. The reaction products are separated from unreacted substrate after application to a C-18 octadecyl lccBond column (Analytichem Int product No. 617101). An aqueous fraction is eluted with 250µl of 0.1M KOH. Squalene is then eluted with 1.0 ml 10% ethylacetate in hexane and radioactivity determined. The difference in radioactivity in the presence and absence of the test compound is used to determine the level of inhibition. […] The IC50 can then be determined from a plot of percentage inhibition against concentration of test compound.
# [2] = tested on: de novo hepatic cholesterol synthesis; experiment: Acute rat cholesterol synthesis assay (de novo hepatic cholesterol synthesis from 14C-acetate); assay type: in vivo; settings: at 50mg/kg; female rats
# Procedure: (b) Acute rat cholesterol synthesis assay.
# This is an acute in vivo test in the rat to measure de novo hepatic cholesterol synthesis from exogenously administered ^14C-acetate.
# Female rats (35 - 55 g) are housed in reverse lighting conditions (red light from 0200h - 1400h) for a period of about 2 weeks prior to test. Animals are allowed free access to chow and drinking water throughout this period. At test, animals should weigh 125 - 150 g.
# Test compounds may be administered by oral gavage, dissolved or suspended in 0.5% polysorbate, or by ip or iv dosing. Control animals receive vehicle alone. After 1 hour the rats are injected ip with 25µCi [2-^14C]-acetate (NEN DUPONT. specific activity, 45-60mCi/mmol NEC-085H, or AMERSHAM specific activity, 50-60mCi/mmol CFA 14) in a volume of 0.25 ml saline (100µCi/ml). After a further hour, rats are terminally anaesthetised with halothane and a blood sample obtained from the abdominal vena cava.
# 1ml of plasma is lyophilised and then saponified in 2ml ethanolic KOH (1 part 33% KOH, 9 parts ethanol) at 75°C for 2 hours. After addition of an equal quantity of water, non-saponifiable lipids are extracted with two 5ml volumes of hexane. The hexane extracts are evaporated to dryness and the residues dissolved in ethanol to determine cholesterol specific radioactivity. ED50 values can be determined in the standard way.
smiles,measurement,setting,value
"OC1(c2ccc(/C=C/c3cccnc3)cc2)CN2CCC1CC2 (centres unmarked) [Example 2, 3-(4-[(E)-2-(3-pyridyl)vinyl]phenyl)quinuclidin-3-ol]",inhibition at 2.5 µM,[1],~89%
same,reduction in the rate of cholesterol biosynthesis,[2],72%
